# In patent publication US20110297235A1, “USE OF TRIARYLAMINE DERIVATIVES AS HOLE-CONDUCTING MATERIALS IN ORGANIC SOLAR CELLS AND ORGANIC SOLAR CELLS CONTAINING SAID TRIARYLAMINE DERIVATIVES” (BASF SE, priority 2009, published 2011):
# Experiments:
# [1] = Glass transition temperature Tg and morphology M by means of DSC; type: physicochemical
# [2] = Decomposition temperature Td by means of TGA; type: physicochemical
# physchem = settings: organic solvent or mixture
# [3] = in vivo; cited from earlier work
smiles,measurement,setting,value
COc1ccc(N(c2ccc(OC)cc2)c2ccc(-c3ccc(N(c4ccc(OC)cc4)c4ccc(C5(c6ccc(N(c7ccc(OC)cc7)c7ccc(-c8ccc(N(c9ccc(OC)cc9)c9ccc(OC)cc9)cc8)cc7)cc6)CCCCC5)cc4)cc3)cc2)cc1 [ID452],glass transition temperature Tg,[1],123 °C
same,decomposition temperature Td,[2],450 °C
same,solubility,physchem; solubility L in chlorobenzene,650 to 1300 mg/mL
same,solubility,physchem; solubility in Tetrahydrofuran,300 to 600 mg/mL
same,solubility,physchem; solubility in Toluene,> 270 mg/mL
COc1ccc(N(c2ccc(-c3ccc(N(c4ccc(OC)cc4)c4ccc(-c5ccc(N(c6ccc(OC)cc6)c6ccc7c(c6)C(C)(C)c6ccccc6-7)cc5)cc4)cc3)cc2)c2ccc(-c3ccc(N(c4ccc(OC)cc4)c4ccc5c(c4)C(C)(C)c4ccccc4-5)cc3)cc2)cc1 [ID453],glass transition temperature Tg,[1],156 °C
same,decomposition temperature Td,[2],440 °C
same,solubility,physchem; solubility L in chlorobenzene,450 to 700 mg/mL
same,solubility,physchem; solubility in Ethyl acetate,40 mg/mL
same,solubility,physchem; solubility in Tetrahydrofuran,340 to 680 mg/mL
same,solubility,physchem; solubility in Toluene,170 to 230 mg/mL
COc1ccc(C(c2ccc(OC)cc2)c2ccc(N(c3ccc(OC)cc3)c3ccc(-c4ccc(N(c5ccc(OC)cc5)c5ccc(N(c6ccc(OC)cc6)c6ccc(OC)cc6)cc5)cc4)cc3)cc2)cc1 [ID480],glass transition temperature Tg,[1],105 °C
same,decomposition temperature Td,[2],430 °C
same,solubility,physchem; solubility L in chlorobenzene,> 280 mg/mL
COc1ccc(N(c2ccc(OC)cc2)c2ccc3c(c2)C(C)(C)c2cc(N(c4ccc(OC)cc4)c4ccc(-c5ccc(N(c6ccc(OC)cc6)c6ccc7c(c6)C(C)(C)c6cc(N(c8ccc(OC)cc8)c8ccc(OC)cc8)ccc6-7)cc5)cc4)ccc2-3)cc1 [ID518],glass transition temperature Tg,[1],150 °C
same,decomposition temperature Td,[2],430 °C
same,solubility,physchem; solubility L in chlorobenzene,400 to 800 mg/mL
same,solubility,physchem; solubility in Ethyl acetate,> 400 mg/mL
same,solubility,physchem; solubility in Tetrahydrofuran,550 to 1100 mg/mL
same,solubility,physchem; solubility in Toluene,160 to 240 mg/mL
COc1ccc(N(c2ccc(-c3ccc(N(c4ccc(OC)cc4)c4ccc(-c5ccc(N(c6ccc(OC)cc6)c6ccc(C)c(C)c6)cc5)cc4)cc3)cc2)c2ccc(-c3ccc(N(c4ccc(OC)cc4)c4ccc(C)c(C)c4)cc3)cc2)cc1 [ID519],glass transition temperature Tg,[1],128 °C
same,decomposition temperature Td,[2],450 °C
same,solubility,physchem; solubility L in chlorobenzene,450 to 900 mg/mL
same,solubility,physchem; solubility in Ethyl acetate,> 460 mg/mL
same,solubility,physchem; solubility in Tetrahydrofuran,> 500 mg/mL
same,solubility,physchem; solubility in Toluene,240 to 350 mg/mL
CCN(CC)c1ccc(N(c2ccc(-c3ccc(N(c4ccc(OC)cc4)c4ccc(OC)cc4)cc3)cc2)c2ccc(-c3ccc(N(c4ccc(-c5ccc(N(c6ccc(OC)cc6)c6ccc(OC)cc6)cc5)cc4)c4ccc(N(CC)CC)cc4)cc3)cc2)cc1 [ID521],glass transition temperature Tg,[1],138 °C
same,decomposition temperature Td,[2],420 °C
same,solubility,physchem; solubility L in chlorobenzene,400 to 550 mg/mL
same,solubility,physchem; solubility in Ethyl acetate,90 to 110 mg/mL
same,solubility,physchem; solubility in Tetrahydrofuran,440 to 580 mg/mL
same,solubility,physchem; solubility in Toluene,500 to 1000 mg/mL
COc1ccc(N(c2ccc(OC)cc2)c2ccc(-c3ccc(N(c4ccc(OC)cc4)c4ccc5c(c4)c4cc(N(c6ccc(OC)cc6)c6ccc(-c7ccc(N(c8ccc(OC)cc8)c8ccc(OC)cc8)cc7)cc6)ccc4n5-c4ccccc4)cc3)cc2)cc1 [ID522],glass transition temperature Tg,[1],158 °C
same,decomposition temperature Td,[2],450 °C
same,solubility,physchem; solubility L in chlorobenzene,900 to 1400 mg/mL
same,solubility,physchem; solubility in Ethyl acetate,600 to 1200 mg/mL
same,solubility,physchem; solubility in Tetrahydrofuran,400 to 600 mg/mL
same,solubility,physchem; solubility in Toluene,490 to 980 mg/mL
COc1ccc(N(c2ccc(OC)cc2)c2ccc(-c3ccc(N(c4ccc(OC)cc4)c4ccc5c(c4)Cc4cc(N(c6ccc(OC)cc6)c6ccc(-c7ccc(N(c8ccc(OC)cc8)c8ccc(OC)cc8)cc7)cc6)ccc4-5)cc3)cc2)cc1 [ID523],glass transition temperature Tg,[1],141 °C
same,decomposition temperature Td,[2],450 °C
same,solubility,physchem; solubility L in chlorobenzene,1250 to 2500 mg/mL
same,solubility,physchem; solubility in Ethyl acetate,240 to 480 mg/mL
same,solubility,physchem; solubility in Tetrahydrofuran,400 to 550 mg/mL
same,solubility,physchem; solubility in Toluene,900 to 1800 mg/mL
CCOc1ccc(N(c2ccc(C3=CCC(N(c4ccc(OC)cc4)c4ccc(-c5ccc(N(c6ccc(OC)cc6)c6ccc(-c7ccc(N(c8ccc(OCC)cc8)c8cccc9ccccc89)cc7)cc6)cc5)cc4)C=C3)cc2)c2cccc3ccccc23)cc1 (centres unmarked) [ID565],glass transition temperature Tg,[1],143 °C
same,decomposition temperature Td,[2],450 °C
same,solubility,physchem; solubility L in chlorobenzene,> 900 mg/mL
same,solubility,physchem; solubility in Anisole,> 1000 mg/mL
same,solubility,physchem; solubility in Ethyl acetate,< 40 mg/mL
same,solubility,physchem; solubility in Tetrahydrofuran,> 850 mg/mL
same,solubility,physchem; solubility in Toluene,400 to 800 mg/mL
CCCCC(CC)COc1ccc(N(c2ccc(-c3ccc(N(c4ccc(OC)cc4)c4ccc(OC)cc4)cc3)cc2)c2ccc(-c3ccc(N(c4ccc(OCC(CC)CCCC)cc4)c4ccc(-c5ccc(N(c6ccc(OC)cc6)c6ccc(OC)cc6)cc5)cc4)cc3)cc2)cc1 (centres unmarked) [ID568],glass transition temperature Tg,[1],65 °C
same,decomposition temperature Td,[2],360 °C
same,solubility,physchem; solubility L in chlorobenzene,> 650 mg/mL
CCCCCCC1(CCCCCC)c2cc(N(c3ccc(OCC(CC)CCCC)cc3)c3ccc(-c4ccc(N(c5ccc(OC)cc5)c5ccc(OC)cc5)cc4)cc3)ccc2-c2ccc(N(c3ccc(OCC(CC)CCCC)cc3)c3ccc(-c4ccc(N(c5ccc(OC)cc5)c5ccc(OC)cc5)cc4)cc3)cc21 (centres unmarked) [ID569],glass transition temperature Tg,[1],47 °C
same,decomposition temperature Td,[2],440 °C
same,solubility,physchem; solubility L in chlorobenzene,400 to 800 mg/mL
COc1ccc(N(c2ccc(C)cc2)c2ccc(-c3ccc(N(c4ccc(OC)cc4)c4ccc(-c5ccc(N(c6ccc(OC)cc6)c6ccc(-c7ccc(N(c8ccc(C)cc8)c8ccc(OC)cc8)cc7)cc6)cc5)cc4)cc3)cc2)cc1 [ID572],glass transition temperature Tg,[1],138 °C
same,decomposition temperature Td,[2],450 °C
same,solubility,physchem; solubility L in chlorobenzene,> 900 mg/mL
same,solubility,physchem; solubility in Anisole,> 400 mg/mL
same,solubility,physchem; solubility in Ethyl acetate,60 to 100 mg/mL
same,solubility,physchem; solubility in Tetrahydrofuran,> 800 mg/mL
same,solubility,physchem; solubility in Toluene,> 500 mg/mL
COc1ccc(N(c2ccc(OC)cc2)c2ccc(-c3ccc(N(c4ccc(OC)cc4)c4ccc(-c5ccc(N(c6ccc(OC)cc6)c6ccc(-c7ccc(N(c8ccc(OC)cc8)c8ccc(OC)cc8)cc7)cc6)s5)s4)cc3)cc2)cc1 [ID575],glass transition temperature Tg,[1],110 °C
same,decomposition temperature Td,[2],440 °C
same,solubility,physchem; solubility L in chlorobenzene,> 400 mg/mL
COc1ccc(N(c2ccc(OC)cc2)c2ccc(-c3ccc(N(c4ccc(-c5ccc(N(c6ccc(-c7ccc(N(c8ccc(OC)cc8)c8ccc(OC)cc8)cc7)cc6)c6cc(F)c(OC)c(F)c6)cc5)cc4)c4cc(F)c(OC)c(F)c4)cc3)cc2)cc1 [ID629],glass transition temperature Tg,[1],134 °C
same,decomposition temperature Td,[2],430 °C
same,solubility,physchem; solubility L in chlorobenzene,> 2000 mg/mL
same,solubility,physchem; solubility in Anisole,> 1500 mg/mL
same,solubility,physchem; solubility in Ethyl acetate,> 1300 mg/mL
same,solubility,physchem; solubility in Tetrahydrofuran,> 2000 mg/mL
same,solubility,physchem; solubility in Toluene,> 1500 mg/mL
COc1ccc(N(c2ccc(OC)cc2)c2ccc(-c3ccc(N(c4ccc(OC)cc4)c4ccc(-c5ccc(N(c6ccc(OC)cc6)c6ccc(-c7ccc(N(c8ccc(OC)cc8)c8ccc(OC)cc8)cc7)cc6)c(C)c5)cc4C)cc3)cc2)cc1 [ID631],glass transition temperature Tg,[1],134 °C
same,decomposition temperature Td,[2],440 °C
same,solubility,physchem; solubility L in chlorobenzene,> 1300 mg/mL
same,solubility,physchem; solubility in Anisole,500 to 1000 mg/mL
same,solubility,physchem; solubility in Ethyl acetate,700 to 1400 mg/mL
same,solubility,physchem; solubility in Tetrahydrofuran,1000 to 2000 mg/mL
same,solubility,physchem; solubility in Toluene,500 to 1000 mg/mL
Clc1ccccc1 [chlorobenzene],LD50,[3],2900 mg/kg
"COc1ccc(N(c2ccc(OC)cc2)c2ccc3c(c2)C2(c4cc(N(c5ccc(OC)cc5)c5ccc(OC)cc5)ccc4-3)c3cc(N(c4ccc(OC)cc4)c4ccc(OC)cc4)ccc3-c3ccc(N(c4ccc(OC)cc4)c4ccc(OC)cc4)cc32)cc1 [spiro-MeOTAD, 2,2′,7,7′-tetrakis(N,N-di-p-methoxyphenyl-amine)-9,9′-spirobifluorene, reference compound]",glass transition temperature Tg,[1],120 °C
same,decomposition temperature Td,[2],440 °C
same,solubility,physchem; solubility L in chlorobenzene,200 to 230 mg/mL
same,solubility,physchem; solubility in Anisole,65 to 75 mg/mL
same,solubility,physchem; solubility in Ethyl acetate,< 6 mg/mL
same,solubility,physchem; solubility in Tetrahydrofuran,120 to 160 mg/mL
same,solubility,physchem; solubility in Toluene,100 mg/mL
